Measurements from patent publication US9040457B2, “Phenylamidines having a high fungicidal activity and use thereof” (ISAGRO S.P.A., priority 2010, dated 2015).

Tests used:
Type in all cases: in vivo
Erysiphe graminis = test: Fungicidal activity in preventive application (5 days) against Erysiphe graminis on wheat; conditions: scale 100 = healthy plant, 0 = completely infected plant; for Activity P5, NT: parts developed during the test (NT); for Activity P5, T: parts treated directly (T)
Method: Determination of the Fungicidal Activity in Preventive Application (5 Days) Against Erysiphe graminis on Wheat
(§1) Leaves of wheat plants of the Salgemma variety, grown in pots in a conditioned environment kept at 20° C. and 70% of relative humidity (R.H.), were treated by spraying on both sides of the leaves with the compounds under examination, dispersed in hydroacetonic solutions at 20% by volume of acetone.
After remaining 5 days in a conditioned environment, the plants were infected under dry conditions by shaking over them, in order to distribute the inoculum, plants previously infected by Erysiphe graminis.
The plants were then maintained in the same cell, in a humidity-saturated environment and at a temperature ranging from 18 to 24° C. for 12 days.
(§2) At the end of this period, the external symptoms of the pathogen appeared and it was therefore possible to proceed with the evaluation of the intensity of the infection, on both the parts treated directly with the products (T), and also on the parts which had developed during the test (NT), by means of a visible percentage evaluation scale of the area of affected leafs; the scale comprises, as extremes, the value 100 (healthy plant) and the value 0 (completely infected plant).

wheat plants [1] = test: Phytotoxicity (percentage of leaf necrosis) on wheat plants, Erysiphe graminis test; conditions: 0 = completely healthy plant, 100 = completely necrotized plant
Method: as §1
(§3) At the same time, the phytotoxicity was evaluated (percentage of leaf necrosis) induced on the wheat plants by the application of the products: in this case, the evaluation scale varies from 0 (completely healthy plant) to 100 (completely necrotized plant).

Puccinia recondita = test: Fungicidal activity in preventive application (5 days) against Puccinia recondita on wheat; conditions: scale 100 = healthy plant, 0 = completely infected plant; for Activity P5, NT: parts developed during the test (NT); for Activity P5, T: parts treated directly (T)
Method: Determination of the Fungicidal Activity in Preventive Application (5 Days) Against Puccinia recondita on Wheat
as §1
After remaining 5 days in a conditioned environment, the plants were sprayed on both sides of the leafs with an aqueous suspension of conidia of Puccinia recondita (2 mg of inoculum per 1 ml of solution for infection).
After being sprayed, the plants were kept in a humidity-saturated environment at a temperature ranging from 18 to 24° C. for the incubation period of the fungus (1 day).
After this period, the plants were put in a greenhouse with R.H. of 70% and at a temperature of 18-24° C. for 14 days.
as §2

wheat plants [2] = test: Phytotoxicity (percentage of leaf necrosis) on wheat plants, Puccinia recondita test; conditions: 0 = completely healthy plant, 100 = completely necrotized plant
Method: as §1, §3

[3] = tested on: cereals, cucumbers, tomatoes and other important crops; test: Phytotoxicity of WO 00/46184 compounds on crops (background statement); conditions: at the doses which allow a good fungicidal activity
phytopathogenic fungi = test: Fungicidal activity of WO 00/46184 compound (background statement); conditions: only exerted satisfactorily in excessively high dosages

Row | Compound | Activity P5, NT (Erysiphe graminis; 30 ppm) | Activity P5, T (Erysiphe graminis; 30 ppm) | Activity P5, NT (Erysiphe graminis; 125 ppm) | Activity P5, T (Erysiphe graminis; 125 ppm) | Phytotoxicity % N.F. (wheat plants [1]; 30 ppm) | Phytotoxicity % N.F. (wheat plants [1]; 125 ppm) | Activity P5, NT (Puccinia recondita; 30 ppm) | Activity P5, T (Puccinia recondita; 30 ppm) | Activity P5, NT (Puccinia recondita; 125 ppm) | Activity P5, T (Puccinia recondita; 125 ppm) | Phytotoxicity % N.F. (wheat plants [2]; 30 ppm) | Phytotoxicity % N.F. (wheat plants [2]; 125 ppm) | leaf necrosis on crops [3] | fungicidal activity (phytopathogenic fungi)
1 | Cc1cc(Oc2cccc(C(F)(F)F)c2)c(C)cc1N=CN(C)C [CR-1, N,N-dimethyl-N′-[4-(3-trifluoromethylphenoxy)-2,5-xylyl]-formamidine] | 76% | 90% | 90% | 100% | 15% | 25% | 70% | 80% | 90% | 100% | 14% | 26% | marked leaf necrosis | –
2 | Cc1cc(Sc2cccc(C(F)(F)F)c2)c(C)cc1N=CN(C)C [CR-2, N,N-dimethyl-N′-[4-(3-trifluoromethylphenylthio)-2,5-xylyl]-formamidine] | 65% | 78% | 80% | 95% | 0% | 0% | 60% | 68% | 90% | 95% | 0% | 0% | – | insufficient
3 | CCN(C)C=Nc1cc(C)c(Sc2cccc(OCC(F)(F)F)c2)cc1C [Compound 15] | 100% | 100% | 100% | 100% | 0% | 0% | 100% | 100% | 100% | 100% | 0% | 0% | – | –
4 | Cc1cc(Oc2cccc(OC(F)(F)F)c2)c(C)cc1N=CN(C)C [CR-4, N,N-dimethyl-N′-[4-(3-trifluoromethoxyphenoxy)-2,5-xylyl]formamidine] | 70% | 75% | 90% | 95% | 15% | 30% | 65% | 70% | 85% | 90% | 20% | 30% | marked leaf necrosis | –
5 | CCN(C)C=Nc1cc(C)c(Oc2cccc(C(F)(F)F)c2)cc1C [CR-3, N-ethyl-N-methyl-N′-[4-(3-trifluoromethylphenoxy)-2,5-xylyl]formamidine] | 85% | 95% | 96% | 100% | 20% | 35% | 85% | 95% | 100% | 100% | 21% | 33% | marked leaf necrosis | –
6 | CCN(C)C=Nc1cc(C)c(Sc2cccc(OCC(F)(F)C(F)(F)F)c2)cc1C [Compound 23] | 100% | 100% | 100% | 100% | 0% | 0% | 100% | 100% | 100% | 100% | 0% | 0% | – | –
7 | CCN(C)C=Nc1cc(C)c(Sc2cccc(OCC(F)(F)C(F)F)c2)cc1C [Compound 19] | 100% | 100% | 100% | 100% | 0% | 0% | 100% | 100% | 100% | 100% | 0% | 0% | – | –
8 | Cc1cc(Oc2cccc(OCC(F)(F)F)c2)c(C)cc1N=CN(C)C [CR-5, N,N-dimethyl-N′-{4-[3-(2,2,2-trifluoroethoxy)phenoxy]-2,5-xylyl}formamidine] | 65% | 70% | 80% | 90% | 20% | 30% | 60% | 65% | 80% | 85% | 15% | 25% | marked leaf necrosis | –
9 | CCN(C)C=Nc1cc(C)c(Sc2cccc(OC(F)(F)C(F)F)c2)cc1C [Compound 2, N-ethyl-N-methyl-N′-{4-[3-(1,1,2,2-tetrafluoroethoxy)phenylthio]-2,5-xylyl}formamidine] | 100% | 100% | 100% | 100% | 0% | 0% | 100% | 100% | 100% | 100% | 0% | 0% | – | –
10 | CCN(C)C=Nc1cc(C)c(Sc2cccc(OC(F)F)c2)cc1C [Compound 1, N-ethyl-N-methyl-N′-[4-(3-difluoromethoxyphenylthio)-2,5-xylyl]formamidine] | 100% | 100% | 100% | 100% | 0% | 0% | 100% | 100% | 100% | 100% | 0% | 0% | – | –
